The values below come from the NIST ThermoML archive (doi:10.1016/j.jct.2005.06.011).

By refractive index is commonly meant the speed of light in vacuum divided by its phase velocity in the sample. By mass density is commonly meant mass per unit of volume. Broadly, the viscosity is the resistance of a fluid to flow. The speed of sound is how fast a sound wave travels through the sample.

SMILES strings stand for the structures. Numbers after ± are expanded uncertainties.

Data set [1] in a line: refractive index (Na D-line) (dimensionless). The conditions noted are these: 101.33 kPa, Liquid.
For data set [2] the following is noted: 101 kPa, Liquid; for speed of sound: Linear variable-path acoustic interferometer.

On to `CC(C)CO` [2-methyl-1-propanol], for which the refractive index in data set [1] (298.15 K) is 1.3932 ± 0.0013; in data set [1] (303.15 K), 1.3917 ± 0.0013; in data set [1] (308.15 K), 1.3896 ± 0.0013. The mass density was 809.31 ± 8.1 kg/m3 in data set [2] (298.15 K), 805.23 ± 8.1 kg/m3 in data set [2] (303.15 K) and 801.11 ± 8 kg/m3 in data set [2] (308.15 K). Besides, the results for the viscosity in data set [2] (298.15 K), in data set [2] (303.15 K) and in data set [2] (308.15 K) were 3.097 ± 0.038 mPa·s, 2.635 ± 0.032 mPa·s and 2.249 ± 0.028 mPa·s, respectively. In data set [2] (298.15 K), the speed of sound is given as 1170 ± 4 m/s.

Regarding `CC1CCCCC1` [methylcyclohexane], the values for the refractive index in data set [1] (298.15 K), in data set [1] (303.15 K) and in data set [1] (308.15 K) were 1.4217 ± 0.0013, 1.4192 ± 0.0013 and 1.4163 ± 0.0013, respectively. For the same molecule, the mass density was 764.99 ± 7.7 kg/m3 in data set [2] (298.15 K), 760.66 ± 7.6 kg/m3 in data set [2] (303.15 K) and 756.3 ± 7.6 kg/m3 in data set [2] (308.15 K). Also, the viscosity in data set [2] (298.15 K) is listed as 0.6757 ± 0.0095 mPa·s; in data set [2] (303.15 K), 0.631 ± 0.0089 mPa·s; in data set [2] (308.15 K) it was 0.5902 ± 0.0085 mPa·s. The speed of sound in data set [2] (298.15 K) was 1217 ± 4 m/s.

`CC(C)CCO` [3-methylbutan-1-ol]: the refractive index in data set [1] (298.15 K) came out at 1.4056 ± 0.0013; in data set [1] (303.15 K), 1.4034 ± 0.0013; in data set [1] (308.15 K) it was 1.4013 ± 0.0013. Besides, the mass density in data set [2] (298.15 K) stood at 820.17 ± 8.2 kg/m3; in data set [2] (303.15 K) it was 816.28 ± 8.2 kg/m3; in data set [2] (308.15 K), 812.34 ± 8.1 kg/m3. Besides, the viscosity in data set [2] (298.15 K) is recorded as 2.779 ± 0.034 mPa·s; in data set [2] (303.15 K) it was 2.258 ± 0.028 mPa·s; in data set [2] (308.15 K) it was 1.844 ± 0.023 mPa·s. Moreover, in data set [2] (298.15 K), the speed of sound worked out at 1259 ± 4 m/s.

Turning to `CCCO` [propan-1-ol], the refractive index in data set [1] (298.15 K) worked out at 1.384 ± 0.0012; in data set [1] (303.15 K), 1.3819 ± 0.0012; in data set [1] (308.15 K) it was 1.38 ± 0.0012. For the same molecule, the mass density in data set [2] (298.15 K) is listed as 809.65 ± 8.1 kg/m3; in data set [2] (303.15 K) it was 805.5 ± 8.1 kg/m3; in data set [2] (308.15 K), 801.32 ± 8 kg/m3. For the same molecule, the viscosity in data set [2] (298.15 K) was determined as 2.077 ± 0.024 mPa·s; in data set [2] (303.15 K), 1.809 ± 0.022 mPa·s; in data set [2] (308.15 K), 1.595 ± 0.019 mPa·s. For the same molecule, the speed of sound in data set [2] (298.15 K) is reported as 1206 ± 4 m/s.
